This note sets out measurements from patent publication US8759390B2, “Chromene modulators of chemokine receptor activity” (Bristol-Myers Squibb Company, priority 2008, dated 2014).

pKi: −log10 of the molar value.

This test deals with T1, CCR2 (Homo sapiens, UniProt P41597).
T1 construct: THP-1 human monocytic leukemic cell line, which expresses endogenous CCR2; endogenous in cells; host or cells: THP-1 human monocytic leukemia cells, or human PBMC / human monocytes
T1 sequence (P41597 1-360 isoform P41597-2): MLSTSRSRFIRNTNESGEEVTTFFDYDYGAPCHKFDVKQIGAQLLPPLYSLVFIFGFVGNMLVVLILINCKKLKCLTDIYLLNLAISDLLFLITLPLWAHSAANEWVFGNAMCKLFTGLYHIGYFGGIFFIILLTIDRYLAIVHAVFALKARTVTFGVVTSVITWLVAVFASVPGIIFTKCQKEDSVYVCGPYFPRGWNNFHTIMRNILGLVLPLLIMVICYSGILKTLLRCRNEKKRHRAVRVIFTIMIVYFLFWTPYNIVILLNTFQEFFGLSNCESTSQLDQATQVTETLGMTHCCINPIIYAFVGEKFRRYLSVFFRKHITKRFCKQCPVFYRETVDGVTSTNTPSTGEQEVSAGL
The experiment in a line: CCR2 binding (125I-human MCP-1 competition on human PBMC / THP-1 cells). The following applies: n = 1 unless otherwise noted; tested in one of the assays described. Here is the method: Antagonism of MCP-1 Binding to Human PBMC
Millipore filter plates (#MABVN1250) are treated with 100 μl of binding buffer (0.5% bovine serum albumin, 20 mM HEPES buffer and 5 mM magnesium chloride in RPMI 1640 media) for thirty minutes at room temperature. To measure binding, 50 μl of binding buffer, with or without a known concentration compound, is combined with 50 μl of ^125-I labeled human MCP-1 (to give a final concentration of […] radioligand) and 50 μl of binding buffer containing 5×10^5 cells. Cells used for such binding assays can include human peripheral blood mononuclear cells isolated by Ficoll-Hypaque gradient centrifugation, human monocytes (Weiner et al., J. Immunol. Methods. 1980, 36, 89), or the THP-1 cell line which expresses the endogenous receptor. The mixture of compound, cells and radioligand are incubated at room temperature for thirty minutes. Plates are placed onto a vacuum manifold, vacuum applied, and the plates washed three times with binding buffer containing 0.5M NaCl. The plastic skirt is removed from the plate, the plate allowed to air dry, the wells punched out and counted. The percent inhibition of binding is calculated using the total counts obtained in the absence of any competing compound and the background binding determined by addition of 100 nM MCP-1 in place of the test compound.
THP-1 Monocytic Cell Binding: Whole Cell-Based Assay
The human CCR2 binding assay was also established with the THP-1 human monocytic leukemic cell line, which expresses endogenous CCR2, using ^125I-human MCP-1 as the tracer ligand. Radioligand competition binding assays were used for assessment of binding affinity of test compounds to the CCR2 receptor. For radioligand competition studies, 100 μl containing 2.5×10^5 THP-1 cells/well (in assay buffer containing 50 mM HEPES, pH7.4, 5mM MgCl2, 1 mM CaCl2 and 0.5% BSA) were added to 96-well assay plates containing the test compounds in 3-fold serial dilution, with final concentrations ranging from 5 μM to […]. Subsequently, 50 μl ^125I-MCP-1 radioligand at a final concentration of 0.2 nM in assay buffer were added to the reaction. After a 90 minute incubation period at room temperature, the binding reaction was terminated by harvesting on GF/B filter plates (PerkinElmer Cat. No. 6005177) followed by washing with ice-cold wash buffer (50 mM HEPES, pH 7.4, 0.1% BSA, 0.5 M NaCl) to remove unbound ligand. After washing, the plate was dried for 45 minutes at 60° C. followed by addition of 40 μl MicroScint 20 scintillation fluid, sealed and analyzed by the Packard TopCount reader. Non-specific binding was determined in the presence of 10 μM (a molar excess of […]) of an in-house CCR2 small molecule antagonist (CCR2 IC50=2 nM). Specific binding of ^125I-MCP-1 was calculated as the difference between total and non-specific binding. The competition data was plotted as a percentage inhibition of radioligand specific bound in the absence of test compound (percent of total signal). After correcting for non-specific binding, IC50 values were determined The IC50 is defined as the concentration of test compound required to reduce ^125I-MCP-1 specific binding by 50% and was calculated using the four parameter logistic equation to fit the normalized data.
Compound `O=C(O)C1=Cc2ccc(Br)cc2OC1c1ccc(Cl)c(Cl)c1` (racemic) [Example 9-5, 2-(3,4-dichlorophenyl)-7-bromo-2H-chromene-3-carboxylic acid] had a pKi of 6.14.

With `O=C(O)C1=Cc2ccccc2OC1c1cccc(Br)c1` (racemic) [Example 5-16, 2-(3-bromophenyl)-2H-chromene-3-carboxylic acid], the pKi was 5.77.

`O=C(O)C1=Cc2ccccc2OC1c1cccc(C(F)(F)F)c1` (racemic) [Example 5-9, 2-(3-trifluoromethylphenyl)-2H-chromene-3-carboxylic acid] gave a negative-log Ki (pKi) of 5.80.

The compound `CC1(c2ccc(Cl)c(Cl)c2)Oc2ccccc2C=C1C(=O)O` (racemic) [Example 4-1, 2-(3,4-dichlorophenyl)-2-methyl-2H-chromene-3-carboxylic acid] gave a pKi of 6.66.

Take `O=C(O)C1=Cc2ccccc2OC1c1ccc(F)c(F)c1` (racemic) [Example 5-11, 2-(3,4-difluorophenyl)-2H-chromene-3-carboxylic acid]: the negative logarithm of the Ki (pKi) was 5.07.

`O=C(O)C1=Cc2ccccc2OC1c1ccc(Cl)cc1` (racemic) [Example 2-2, 2-(4-chlorophenyl)-2H-chromene-3-carboxylic acid] showed a pKi of 6.02.

As to `O=C(O)C1=Cc2ccccc2OC1c1cnc2ccccc2c1` (racemic) [Example 5-23, 2-(quinolin-3-yl)-2H-chromene-3-carboxylic acid], the pKi was 5.37.

For `O=C(O)C1=Cc2cc(F)ccc2OC1c1ccc(Cl)c(Cl)c1` (racemic) [Example 9-4, 2-(3,4-dichlorophenyl)-6-fluoro-2H-chromene-3-carboxylic acid], the negative logarithm of the Ki (pKi) was 6.47.

`O=C(O)C1=Cc2ccccc2OC1c1cccc([N+](=O)[O-])c1` (racemic) [Example 5-12, 2-(3-nitrophenyl)-2H-chromene-3-carboxylic acid] had a negative-log Ki (pKi) of 5.55.

As to `O=C(O)C1=Cc2ccccc2OC1c1ccc(Br)cc1` (racemic) [Example 5-15, 2-(4-bromophenyl)-2H-chromene-3-carboxylic acid], the pKi is 6.37.

`O=C(O)C1=Cc2ccccc2OC1c1cccc(Cl)c1Cl` (racemic) [Example 5-26, 2-(2,3-dichlorophenyl)-2H-chromene-3-carboxylic acid] gave a pKi of 5.59.

On to `O=C(O)C1=Cc2ccccc2OC1c1ccc(C(F)(F)F)c(Cl)c1` (racemic) [Example 7-5, 2-(3-chloro-4-trifluoromethyl-phenyl)-2H-chromene-3-carboxylic acid], for which the pKi is 6.41.

Turning to `O=C(O)C1=Cc2ccccc2OC1c1cc(Cl)cc(Cl)c1` (racemic) [Example 2-4, 2-(3,5-dichlorophenyl)-2H-chromene-3-carboxylic acid], the negative-log Ki (pKi) was 5.35.

In the case of `O=C(O)C1=Cc2ccccc2OC1c1ccc(Cl)c(C(F)(F)F)c1` (racemic) [Example 2-1, 2-(4-chloro-3-(trifluoromethyl)phenyl)-2H-chromene-3-carboxylic acid], the pKi was 7.12.

One may read the pKi as the Ki on a negative log10 scale, so that one unit is a factor of ten. A low value points to a high Ki.
